Measured values: US20080161232A1, “C5a Receptor Antagonist” (JERINI AG, priority 2005, published 2008)
Non-standard residues stand in square brackets, D forms with d. Residues, ends and D or L forms follow the SMILES beside them. Bta = N[C@@H](Cc1csc2ccccc12)C(=O)O; d(hLeu) = CC(C)CC[C@@H](N)C(=O)O; Orn = NCCC[C@H](N)C(=O)O

Columns and labels:
[1] = tested on: Wistar rats; assay: Model of C5a induced neutropenia; format: in vivo; conditions: i.v. infusion 10 min before 2 μg/kg hr C5a i.v., FIG. 2
Text: Efficacy of compound 149 in a model of C5a induced neutropenia
C5a induced neutropenia is a model for shock induced diseases (e.g. septic shock), where the systemic role of C5a (neutropenia, blood pressure decrease) plays an important role. The reason for the decrease of the neutrophils in the circulation is their binding to the vessel walls due to the C5a stimulus. These processes of neutrophil recruitment are playing an important role in many other diseases like reperfusion injury. This model was also described by Short et al. (1999 British Journal of Pharmacology 125: 551-554).
Female Wistar rats were treated i.p. with ketamine (80 mg/kg) and xylazine (12 mg/kg). A catheter was introduced in the jugular vein and the animals were subjected to the following procedure:
1. Rats were treated with vehicle or compounds according to the invention like compound 149 via i.v. infusion. A blood sample was taken one minute before compound treatment. 2. 10 min after compound infusion rats were treated with 2 μg/kg hr C5a i.v. (2 μg/kg over 1 min). […]
White blood cell count was measured with a haematology-cell-counter. […]
The differential cell count was determined as the sum of neutrophils, eosinophils, basophils, lymphocytes and monocytes of 100 cells. Then the percentage of the neutrophils in relation to all white blood cells was calculated.

[2] = target: T1, human C5aR(CD88) (Homo sapiens, UniProt P21730); assay: Determination of EC50-values in an enzyme release assay (agonistic activity); format: cell-based; conditions: cellular assay, up to a concentration of at least 1430 nM
T1 construct: expressed in transfected cells; host or cells: rat basophilic leukemia cells (RBL)
T1 sequence (P21730 1-350): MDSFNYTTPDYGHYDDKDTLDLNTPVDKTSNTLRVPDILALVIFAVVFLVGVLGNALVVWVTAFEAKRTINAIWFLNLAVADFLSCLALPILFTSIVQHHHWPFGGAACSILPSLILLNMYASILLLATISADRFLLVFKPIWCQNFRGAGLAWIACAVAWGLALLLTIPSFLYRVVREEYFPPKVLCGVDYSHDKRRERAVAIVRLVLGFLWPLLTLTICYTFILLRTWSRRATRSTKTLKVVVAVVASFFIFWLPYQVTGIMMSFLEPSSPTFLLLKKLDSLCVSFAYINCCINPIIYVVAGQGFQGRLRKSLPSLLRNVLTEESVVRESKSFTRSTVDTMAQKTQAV
Protocol: The assay procedure was described by Kohl (Kohl 1997 The Anaphylatoxins. In: Dodds, A. W., Sim, R. B. (Eds.), Complement: A Practical Approach. Oxford, pp. 135-163). Basophilic leukemia cells from rats (RBL), which express the human C5aR(CD88), were cultivated in DMEM with 10% fetal bovine serum, 100 U/ml penicillin, 100 μg/ml streptomycin and 2 mM glutamine (all components of the media from Biochrome, Berlin) to confluence at 37° C. and 10% CO2. The following specifications refer to single cell culture flask having a surface of 75 cm^2. Medium was decanted from cells. Cells were washed with 10 ml PBS (Dulbecco's PBS, Biochrome) and subsequently overlayed with 3 ml Cell Dissociation Solution (CDS, Sigma). Cells were incubated for 1 min at room temperature. Subsequently, CDS was removed and the cells were further incubated for 10-15 min at 37° C. for dissociation. In the assay, 20 μl of the solution containing the compound to be tested were used. This solution should not contain more than 2.8% DMSO. For the dilution process, the compounds were diluted in ⅓ or ½ steps. To 20 μl compound solution 75 μl of the RBL-cells were added, which were treated as follows: after dissociation cells were detached and warmed at 37° C. in 10 ml HAG-CM (20 mM HEPES; 125 mM NaCl, 5 mM KCl, 1 mM CaCl2, 1 mM MgCl2, 0,5 mM Glucose, 0,25% BSA. HEPES-preparation: 2.3 g/l HEPES-salt +2.66 g/l HEPES acid). Cells were counted and centrifuged (200×g, 10 min). The cell pellet was resuspended in preheated HAG-CM (i.e. Hepes-buffer NaCl-glucose-solution with calcium and magnesium), and the cell density was adjusted to 2×10^6 cells/ml. The cells were incubated at 37° C. for 5 min. Per ml cell suspension 27 μl of a cytochalasin B-solution were added (100 μg/ml in DMSO, Sigma). The cells were incubated for further 3 min at 37° C. 75 μl of the cell suspension were added to 20 μl compound solution leading to a volume of 95 μl per well. After incubation of the cells for 10 min at 37° C. 10 μl hrC5a (10.5 nM in HAG-CM, Sigma) per well were added. The cells were incubated for additional 5 min at 37° C. The mtp was then transferred to ice and centrifuged for 3 min at 4° C. with 1200×g. 75 μl of the supernatant were added to 100 μl substrate-solution (2.7 mg/ml p-nitrophenyl-N-acetyl-β-D-glucosaminide (Sigma) in 42.5 mM Na-acetate pH 4.5). The mtp was incubated for further 60 min at 37° C. 75 μl 0.4 M glycine pH 10.4 were added per well. The mtp was transferred into a reader and the absorption at 405 nm was measured. IC50-values were obtained following the equation; y=((A-D)/(1+(x/C)^B))+D.
Determination of EC50-Values in an Enzyme Release Assay
The determination of EC50-values was performed according to the procedure given in example II, with the exception that 30 μl of the test compound need to be mixed with 75 μl of the cell suspension mentioned in example 11. Neither preincubation nor addition of C5a for stimulation of enzyme release is needed.

[3] = target: T1, human C5aR(CD88); assay: Determination of the IC50 value in an enzyme release assay (functional assay, antagonistic activity); format: cell-based
[4] = tested on: BALB/c mice; assay: Model of immune complex mediated peritonitis (reverse passive Arthus reaction); format: in vivo; conditions: 1 mg/kg i.v. 15 min before Arthus reaction, lavage after 6 h, FIG. 1
Text: Efficacy of compound 149 in a model of immune complex mediated peritonitis
Immune complex mediated peritonitis resembles the pathological conditions of immune complex related diseases like vasculitis, nephritis, arthritis, and farmer's disease. The associated animal model was described by Heller et al. (1999 Journal of Immunology 163: 985-994) and takes advantage of the pro-inflammatory effects of immune complexes formed after i.v. administration of the antigen and i.p. administration of the antibody.
BALB/c mice (6-8 weeks old) were treated i.v. with compound 149 (1 mg/kg bodyweight in 200 μl vehicle) 15 min before the initiation of the reverse passive Arthus reaction. Arthus reaction was induced through the administration of OVA (20 mg/kg i.v. in 200 μl PBS) and polyclonal anti-OVA Ab (rabbit; 800 μg/Maus i.p). After 6 h a peritoenal lavage with 2 ml PBS 0.1% BSA was done. The collected PE-cells were stained with DIFF-Quick. At least 20 visual fields (100× magnification) were analyzed for the presence of neutrophils.

With `CC(=O)N[C@@H](Cc1ccccc1)C(=O)N[C@@H](CCCN)C(=O)N1CCC[C@H]1C(=O)N[C@H](CCC(C)C)C(=O)N[C@@H](Cc1csc2ccccc12)C(=O)N[C@@H](Cc1ccccc1)C(N)=O` [Compound 149, Ac-Phe-Orn-Pro-hle-Bta-Phe-NH2] (Ac-F[Orn]P[d(hLeu)][Bta]F-NH2) the “C5a-induced neutropenia (percentage of neutrophils over time)” value [1] was “reduces the C5a-induced neutropenia remarkable”, the “agonistic activity (in words)” value [2] was “pure antagonists” and the IC50 ([3]; antagonistic activity, IC50 group in enzyme release assay, RBL cells expressing human C5aR(CD88), read-out: activity (group)) was 10 to 20 nM. For the same compound, the “inhibitory activity (in words)” value ([3]; functional assay of example 11, noteworthy = IC50 less than 200 nM) was “noteworthy inhibitory activity” and the “influx of neutrophils / pro-inflammatory cells into the peritoneum” value [4] was “reduction of the influx of pro-inflammatory cells into the peritoneum”.
